Experiments:
stomach secretion = assay: Inhibition of stomach secretion (volume and hydrochloric acid) in rats; type: in vivo, rat; conditions: 4 hours after administration of the antiulcerogenic ED50
Experimental: *% inhibition = inhibition (in %) of stomach secretion 4 hours after
administration of the antiulcerogenic ED50
(§1) Ulcers are provoked in rats which have been starved for 24 hours (female rats, 180 to 200 g, 4 animals in a cage with a high grille) by means of a pylorus ligature (under anaesthesia with diethyl ether) and oral administration of 100 mg/10 ml/kg of acetylsalicyclic acid. The substances to be tested are administered orally (10 ml/kg) 1 hour before the pylorus ligature. The closure of the wound is effected by means of Michel's clips. The animals are killed 4 hours afterwards under ether anaesthesia by dislocating the atlas, and the stomach is cut out. The stomach is opened longitudinally and is fixed on a cork slab, the quantity of gastric juice secreted (volume) and the hydrochloric acid content having been determined beforehand; the number and size (= diameter) of ulcers present are determined by means of a stereomicroscope at a 10-fold magnification. The product of the degree of severity (in accordance with the following rating scale) and the number of the ulcers is used as an individual ulcer index.

[1] = Determination of toxicity, intravenous, mice; conditions: mouse, in vivo, i.v., female NMRI mice, 7 days observation, read-out: Toxicity LD50 administered intravenously to mice
Experimental: LD50 = the dose at which 50% of the animals die
The toxicity investigations are carried out on female NMRI mice (body weight 22 to 26 g). The animals (5 animals per dose) receive feed and water ad lib. Various doses of the substances are administered intravenously (duration of injection 1 minute). The observation period is 7 days. The LD50 (the dose at which 50% of the animals die) is determined by means of a linear regression.

Shay rats = assay: Antiulcerogenic action (protective action on the stomach) in Shay rats, pylorus ligature plus acetylsalicylic acid; type: in vivo, rat; conditions: for TQ LD50/ED50 (therapeutic quotient): LD50 i.v. mice / ED50 p.o. rats; for ED50: Rattus norvegicus, po, p.o. 1 hour before pylorus ligature, dose reducing ulcer index by 50% vs control, read-out: Protective action on the stomach ED50 administered perorally to rats
Experimental: The effect of the compounds according to the invention on the formation, in rats, of gastric ulcers provoked by a pylorus ligature and 100 mg/kg of acetylsalicyclic acid, (administered orally) is shown in table II.
ED50 = the dose which reduces the ulcer index for the group treated
by 50% compared with the control group
The anti-ulcerogenic action is tested by a method using the so-caled Shay rats:
as §1
ulcer diameter 0.1-1.4 mm
The reduction in the average ulcer index in each group treated compared with that of the control group (=100%) is used as a measure of the anti-ulcerogenic effect. The ED50 indicates the dose which reduces the average ulcer index by 50%.

## CC1(C)[C@@H](OC(=O)CCC(=O)O)CC[C@]2(C)[C@H]3C(=O)C=C4[C@@H]5C[C@@](C)(C(=O)O)CC[C@]5(C)CC[C@@]4(C)[C@]3(C)CC[C@@H]12 [Compound 1, Carbenoxolone, reference compound]
Stomach secretion
  % inhibition of stomach secretion in rats, hydrochloric acid: 4%
  % inhibition of stomach secretion in rats, volume: 7%
[1]
  LD50 at 168 h: 290 mg/kg
Shay rats
  TQ LD50/ED50 (therapeutic quotient): ~ 4.1
  ED50: ~70 mg/kg
Shay rats; even at 300 mg/kg, rats
  anti-ulcerogenic action at high dose: not possible to achieve any substantial increase in the anti-ulcerogenic action
Shay rats; rats, p.o.
  dose/action curve (dose dependence of the action): the dose/action curve then flattens out very considerably

## CN1CCN(CC(=O)N2c3ccccc3NC(=O)c3cncnc32)CC1 [Compound 2, 11-[(4-Methyl-1-piperazinyl)acetyl]-5,6-dihydropyrimido[4,5-b][1,5]benzodiazepin-5-one]
Stomach secretion
  % inhibition of stomach secretion in rats, hydrochloric acid: 5%
  % inhibition of stomach secretion in rats, volume: 10%
[1]
  LD50 at 168 h: 180 mg/kg
Shay rats
  TQ LD50/ED50 (therapeutic quotient): 15
  ED50: 12 mg/kg

## CN1CCN(CC(=O)N2c3ccccc3N(C)C(=O)c3cnc(-c4ccccc4)nc32)CC1 [Compound 3, 6-Methyl-11-[(4-methyl-1-piperazinyl)acetyl]-2-phenyl-5,6-dihydropyrimido[4,5-b][1,5]benzodiazepin-5-one]
Stomach secretion
  % inhibition of stomach secretion in rats, volume: 7%
[1]
  LD50 at 168 h: 95 mg/kg
Shay rats
  TQ LD50/ED50 (therapeutic quotient): 10.5
  ED50: 9 mg/kg

## CN1C(=O)c2cnc(-c3ccccc3)nc2N(C(=O)CN2CCCCC2)c2ccccc21 [Compound 4, 6-Methyl-2-phenyl-11-piperidinoacetyl-5,6-dihydropyrimido[4,5-b][1,5]benzodiazepin-5-one]
Stomach secretion
  % inhibition of stomach secretion in rats, hydrochloric acid: 22%
  % inhibition of stomach secretion in rats, volume: 32%
[1]
  LD50 at 168 h: 160 mg/kg
Shay rats
  TQ LD50/ED50 (therapeutic quotient): ~ 20
  ED50: ~8 mg/kg

## CN(C)CCN(C)CC(=O)N1c2ccccc2N(C)C(=O)c2cnc(-c3ccccc3)nc21 [Compound 5, 11-[N-(2-dimethylaminoethyl)-N-methylamino]acetyl-6-methyl-2-phenyl-5,6-dihydropyrimido[4,5-b][1,5]benzodiazepin-5-one]
Shay rats; 30 mg/kg, p.o., rats
  inhibitory effect (anti-ulcerogenic action): up to 100%
Shay rats
  ED50: < 10 mg/kg

Source: patent US4311700A, “Pyrimidobenzodiazepinones, their use and medicaments containing them” (priority 1979, dated 1982)
